Data taken from US4117121A, “Method of increasing bile flow and decreasing lipid levels” (Hoffmann-La Roche Inc., priority 1977, dated 1978).

What was measured:
bile flow [1] = test: Comparative effect on bile flow (Example 2); format: in vivo, female rats; conditions: 100 mg intragastrically, vs average bile of two hours preceding treatment
Procedure: Female rats, weighing approximately 250 g, were fasted overnight prior to surgery; water was allowed ad libitum. The surgical procedures involving cannulation of the upper part of the common bile duct were carried out under Penthrane anesthesia. A catheter placed in the avascular part of the stomach was used for intragastric administration of emulsion; another catheter was placed in the duodenum. After surgery the rats were kept in restraining cages. Intraduodenal infusion of bile (collected previously from donors) was then started at the rate of 0.9 ml/hr. The infusion pressure was kept constant by means of a pump. Hydration was maintained by allowing the animals to drink saline ad libitum.
All rats were allowed~20 hours to recover from surgery. During this post-surgical period bile was collected in pooled samples of 16-18 hours. Having achieved steady hourly flow, the two samples obtained prior to the actual experiment were collected individually and considered as a control standard for each rat.
Bile samples were collected hourly, over a 24-hour period. The volume was measured to the nearest 0.1 ml.
The values in Table III were expressed for the purpose of the analysis, as a percent change from average bile collected in the two hours immediately preceding treatment.

[2] = test system: intestinal absorbtion of CHOLESTEROL; test: Intestinal absorption of cholesterol: appearance of 4-14C-cholesterol in thoracic duct lymph; format: in vivo, female albino rats (Charles River); conditions: 100 mg orally, vs Na-TC control, 14C-cholesterol in lymph; for % decrease of cholesterol, 0-8 hours: 0-8 hours after emulsion; for % decrease of cholesterol, 9-24 hours: 9-24 hours after emulsion
Text: (§1) In these studies female albino rats (Charles River), weighing 300 ± 10 g were kept on a Purina chow diet ad libitum until the time of operation. […] This preparation enabled the production of lymph at a constant rate, the infusion of a bile salt, and the simultaneous collection of bile.
(§2) All animals received, after operation, a continuous duo denal infusion of sodium taurocholate (Na-TC) in 0.85% NaCl. One day after operation, the rats were given, by stomach intubation, an emulsion containing about 4% triolein, 20 μC of 4-^14 C-cholesterol (Specific Activity 61.7 mC/mM, 159 μC/mg), 2 mg of cholesterol, in addition to protein, carbohydrate, and saline. Both the Na-TC and the cholesterol carrier employed gave a single spot on either thin layer or glass fiber paper chromatograph so no further purification was attempted. The commercial glyceryl trioleate contained a large percentage of di- and monoolein. Triolein was, therefore, purified by passage through a silicic acid column; the final product gave a single spot on either glass fiber paper or thin layer chromatography.
(§3) To 4 ml of this emulsion was added 100 mg of either Na-TC (control group) or compounds A through D. This mixture was given orally to the animals.
(§4) The sampling of thoracic duct lymph and of bile was divided into two collecting periods, 0-8 and 9-24 h after emulsion administration.
Lymph specimens were lyophilized and the lipids in the residue were extracted with ethanol-isopropyl ether, 2:1 parts by volume, by procedure described in Gallo-Torres, et al; Biophys. Acta, 176 605-615 (1969). An aliquot of the lipid extract was placed on a small piece of glass fiber paper and counted. Another aliquot was used for the separation of cholesterol and its esters by glass fiber paper chromatography.
The effect of compounds A through D derivatives on the appearance of total ^14 C-cholesterol in the thoracic duct lymph of rats is summarized in Table I. Of the dose administered to the control animals, 5 × 10^5 dpm were recovered in the first 8 h and 3.4 × 10^6 dpm in the period of 9-24 h following administration of the emulsion. […] The tolerance of cholesterol in Table I is the % decrease in the 4-^14 C-cholesterol over the control appearing in the lymph during the specified period.

bile flow [3] = test: Stimulation of bile flow (Example 1); format: in vivo, female albino rats (Charles River); conditions: 100 mg orally, over the Na-TC control
Text: as §1, §2, §3, §4
In this table the results are expressed as the % increase in bile flow over the control.

triglyceride absorption = test: Inhibition of absorption of dietary triglyceride after oral corn oil load; format: in vivo, rats
Procedure: The ability of compound A to inhibit the absorption of dietary triglyceride in rats is determined by analyzing the rise in serum triglycerides after an oral load of corn oil. To 24 hours fasted rats (6 per group), compound A was administered orally at 1.1 mmoles/kg 15 minutes before a single oral dose of corn oil ([…]). Blood samples (0.4 ml) were collected from the rat tail 0, 2, 4, 6, 8 and 24 hours after compound administration. Each rat is its own control. Plasma samples were analyzed for triglyceride content by the procedure set forth in Kessler and H. Lederer, Tehnicon Symposium 1965 Automation in Analytical Chemistry Ed. L. Skeggs, published Mediad Inc. N.Y. (1966)pp341. The data in Table V is expressed as mg% change in plasma triglyceride levels compared to zero time control values at each time interval. This change in plasma triglycerides was determined by calculating the difference between the triglyceride level at each time point compared to zero time control level.
The procedure of Example 4 was followed except groups of 4 were utilized. Compound B was administered.

rat pancreatic lipase = target: T1, rat pancreatic lipase (Rattus norvegicus, UniProt P27657); test: Inhibition of rat pancreatic lipase in vitro; format: biochemical; conditions: 14C-triolein emulsion, pH 8.6, 20 min at 37° C.
T1 sequence (P27657 17-465): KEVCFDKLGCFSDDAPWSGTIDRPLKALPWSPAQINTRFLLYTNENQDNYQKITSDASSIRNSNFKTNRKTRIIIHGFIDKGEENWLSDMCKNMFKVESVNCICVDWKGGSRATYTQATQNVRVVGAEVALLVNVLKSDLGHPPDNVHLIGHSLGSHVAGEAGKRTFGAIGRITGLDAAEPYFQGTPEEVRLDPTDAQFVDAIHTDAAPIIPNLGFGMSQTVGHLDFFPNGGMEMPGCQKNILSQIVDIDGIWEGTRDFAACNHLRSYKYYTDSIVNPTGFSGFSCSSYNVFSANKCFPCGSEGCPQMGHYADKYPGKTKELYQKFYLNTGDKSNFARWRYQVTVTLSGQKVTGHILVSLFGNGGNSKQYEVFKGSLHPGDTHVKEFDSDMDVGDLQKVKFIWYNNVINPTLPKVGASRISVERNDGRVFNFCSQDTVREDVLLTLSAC
Procedure: Dietary long-chain triglycerides must be hydrolyzed by pancreatic lipase in the duodenum before absorption can occur. […] The capacity of compounds B and C to inhibit rat pancreatic lipase in vitro was investigated. The ability of compounds to inhibit rat pancreatic lipase is determined by analyzing the nmoles of free fatty acid [oleic acid] released from [^14 C]-triolein. Compounds of B and C are added to an emulsion consisting of: 200,000 dpm ^14 C-triolein, 7.5 mg triolein, 0.75 mg sodium taurocholate, 15 mg bovine serum albumin and 0.9 ml 0.2 M tris-HCl - 0.15 M NaCl, pH 8.6, per assay. Water and/or pancreatic lipase is added to make an assay volume of 1.0 ml. The emulsion is incubated for 20 min at 37° C. in a shaking water bath. The reaction is stopped by the addition of isopropanol; H2 SO4 (40:1). The lipids are extracted twice with 3 ml volumes of hexane. The liberated fatty acids are extracted with 2 ml of 0.1 N KOH in 50% methanol. A 1 ml aliquot of the KOH layer is placed in a scintillation vial with 10 ml of 2,5-bis-2- (5-tertiarybutyl benzoxazolyl)thiophene. The radioactivity is determined in a scintillation counter. Data are expressed as nmoles free fatty acid [oleic acid] released.

[4] = test system: cholesterol-7α-hydroxylase; test: Effect on activity of cholesterol-7α-hydroxylase; conditions: in words

| Structure (SMILES) | % increase in Bile Flow, 0-12 hours (bile flow [1]) | % increase in Bile Flow, 13-24 hours (bile flow [1]) | % increase in Bile Flow, overall 24 hour period (bile flow [1]) | % decrease of cholesterol, 0-8 hours [2] [%] | % decrease of cholesterol, 9-24 hours [2] [%] | % increase of Bile Flow, 0-8 hours (bile flow [3]) | % increase of Bile Flow, 9-24 hours (bile flow [3]) | also measured |
| --- | --- | --- | --- | --- | --- | --- | --- | --- |
| C[C@H](CCC(=O)O)[C@H]1CC[C@H]2[C@@H]3[C@H](O)C[C@@H]4C[C@H](O)CC[C@]4(C)[C@H]3CC[C@]12C [CDC, chenodeoxycholic acid] | +504% | +9% | +513% | – | – | – | – | – |
| C[C@]12CC[C@@H](O)C[C@H]1CC[C@@H]1[C@@H]2C[C@H](O)[C@]2(C)[C@@H](C(=O)O)CC[C@@H]12 [Compound A, 3α, 12α-dihydroxy-etiocholane-17β-carboxylicacid] | +286% | +79% | +365% | 0 | 79 | +18% | -3% | Change in Plasma Triglyceride Levels, 4 hr (triglyceride absorption; 4 hr, 1.1 mmoles/kg orally, 15 minutes before corn oil, 6 per group, vs zero time): 50 ± 13 mg%; Change in Plasma Triglyceride Levels, 6 hr (triglyceride absorption; 6 hr, 1.1 mmoles/kg orally, 15 minutes before corn oil, 6 per group, vs zero time): 113 ± 34 mg%; Change in Plasma Triglyceride Levels, 8 hr (triglyceride absorption; 8 hr, 1.1 mmoles/kg orally, 15 minutes before corn oil, 6 per group, vs zero time, *p<0.05): 164 ± 40 mg%; Change in Plasma Triglyceride Levels, 24 hr (triglyceride absorption; 24 hr, 1.1 mmoles/kg orally, 15 minutes before corn oil, 6 per group, vs zero time): 83 ± 11 mg%; Change in Plasma Triglyceride Levels, 2 hr (triglyceride absorption; po, 1100 umol/kg): 37 ± 9 mg% |
| C[C@H](C(=O)O)[C@H]1CC[C@H]2[C@@H]3CC[C@@H]4C[C@H](O)CC[C@]4(C)[C@H]3C[C@H](O)[C@]12C [Compound B, 3α, 12α-dihydroxy-5β-23,24-bisnorcholanic acid] | +517% | +113% | +630% | 0 | 0 | +38% | +47% | Ki (rat pancreatic lipase): 14 mM; Change in Plasma Triglycerides, 2 hr (triglyceride absorption; Example 5, 2 hr, procedure of Example 4, groups of 4): -3 mg%; Change in Plasma Triglycerides, 4 hr (triglyceride absorption; Example 5, 4 hr, procedure of Example 4, groups of 4): 7 mg%; Change in Plasma Triglycerides, 6 hr (triglyceride absorption; Example 5, 6 hr, procedure of Example 4, groups of 4): 15 mg%; Change in Plasma Triglycerides, 8 hr (triglyceride absorption; Example 5, 8 hr, procedure of Example 4, groups of 4): 54 mg%; Change in Plasma Triglycerides, 24 hr (triglyceride absorption; Example 5, 24 hr, procedure of Example 4, groups of 4): 30 mg% |
| C[C@H](CC(=O)O)[C@H]1CC[C@H]2[C@@H]3CC[C@@H]4C[C@H](O)CC[C@]4(C)[C@H]3C[C@H](O)[C@]12C [Compound C, 3α, 12α-dihydroxy-5-β-norcholanic acid] | – | – | – | 40 | 53 | +4% | +30% | Ki (rat pancreatic lipase): 1 mM |
| C[C@H](CCO)[C@H]1CC[C@H]2[C@@H]3CC[C@@H]4C[C@H](O)CC[C@]4(C)[C@H]3C[C@H](O)[C@]12C [Compound D, 3α, 12α, 23-trihydroxy-5β-24-norcholane] | – | – | – | 84 | 44 | +22% | +14% | – |
| C[C@H](CCC(=O)O)[C@H]1CC[C@H]2[C@@H]3[C@H](O)C[C@@H]4C[C@H](O)CC[C@]4(C)[C@H]3C[C@H](O)[C@]12C [cholic acid, 3α, 7α, 12α-trihydroxy-5β-cholanic acid] | +161% | – | +38% | – | – | – | – | effect on the activity of cholesterol-7α-hydroxylase [4]: adverse effect |
| C[C@H](CCC(=O)O)[C@H]1CC[C@H]2[C@@H]3CC[C@@H]4C[C@H](O)CC[C@]4(C)[C@H]3C[C@H](O)[C@]12C [deoxycholic acid, 3α, 12α-dihydroxy-5β-cholanic acid] | +335% | – | +219% | – | – | – | – | effect on the activity of cholesterol-7α-hydroxylase [4]: adverse effect |
